The record followed here is PubChem BioAssay AID1996.

≈ marks a conversion by molar mass, not a printed value.

The conditions of this data set: buffer; pH 7.4; 200.0 µM.
Turning to `Cc1cccc(C(=O)N2CCCC(c3nc(-c4ccc(C)o4)no3)C2)c1` (stereo not given), the solubility (kinetic) – broadly, the concentration staying in solution when a stock, usually in DMSO, is diluted into the medium – is 0.0477 mg/mL (≈ 136 µM). Turning to `O=C(OCC(=O)c1ccc[nH]1)c1ccc(Cl)c(Cl)c1`, the kinetic solubility is 0.0068 mg/mL (≈ 22.8 µM). This solubility kinetic lies about 7-fold lower than the previous one. Next, `CCN1CCN(CC(=O)c2cc(Cl)ccc2Cl)CC1`: greater than 0.0452 mg/mL; `COC(=O)c1ccccc1NC(=O)COC(=O)[C@H](C)NC(N)=O`: greater than 0.0485 mg/mL; `CCc1ccc2oc(C(=O)Nc3nonc3CC)c(C)c2c1`: less than 0.0002 mg/mL. Next, `O=C(NC(=S)NC1CCS(=O)(=O)C1)c1ccccc1F` (stereo not given): 0.0449 mg/mL (≈ 142 µM). As for `CCC1(C)CC(=O)N(c2ccc(F)c(Cl)c2)C(=O)C1`, the solubility (kinetic) was 0.014 mg/mL (≈ 49.3 µM). Next, `O=c1c2[nH]c3cccc(Cl)c3c2ncn1Cc1ccco1`: 0.0005 mg/mL (≈ 1.67 µM); `NS(=O)(=O)c1ccc(CNC(=O)c2ccc(NS(=O)(=O)c3cccs3)cc2)cc1`: greater than 0.0677 mg/mL.

In turn, `O=C(c1ccccc1)c1ccc(OCC(=O)N2CCOCC2)cc1` came in with a solubility (kinetic) greater than 0.0488 mg/mL. For `O=C1CNC(=O)/C(=C\c2ccc(F)cc2)N1`, the kinetic solubility came to 0.005 mg/mL (≈ 22.7 µM). Next, `O=C(Cc1ccccc1)NCC(=O)OCc1ccccc1F`: 0.0173 mg/mL (≈ 57.4 µM); `COc1ccc(S(=O)(=O)Nc2cc(S(=O)(=O)N3CCOCC3)ccc2OC)cc1`: 0.0373 mg/mL (≈ 84.3 µM); `O=[N+]([O-])c1ccc(-n2cnc3ccccc32)c([N+](=O)[O-])c1`: greater than 0.0426 mg/mL. With `O=C(COc1ccc(Cl)cc1Cl)OCC(=O)c1ccc[nH]1`, the kinetic solubility came to 0.0082 mg/mL (≈ 25 µM). Next, `CC(=O)c1cccc(NC(=O)c2ccc(OC3CSC3)cc2)c1`: less than 0.0007 mg/mL; `S=C(Nc1ccc2c(c1)OCO2)Nc1ccccc1Cl`: 0.0325 mg/mL (≈ 106 µM). In turn, `Cc1cc(C)c(N=Cc2c(O)c3ccccc3oc2=O)c(C)c1` had a kinetic solubility of less than 0.0007 mg/mL. As for `Cc1cc(C)cc(OCC(=O)OCC(=O)Nc2cc(S(=O)(=O)N3CCOCC3)ccc2Cl)c1`, the kinetic solubility was 0.0416 mg/mL (≈ 83.7 µM). Next, `CC(C)(C)c1ccc(C(=O)NCc2ccccc2)cc1`: less than 0.0006 mg/mL; `N#Cc1ccsc1NC(=O)COC(=O)c1ccc(Br)o1`: 0.0105 mg/mL (≈ 29.6 µM).

`Cc1cc(Nc2cccc(F)c2)nc(N2CCOCC2)n1` displayed a solubility (kinetic) of 0.0362 mg/mL (≈ 126 µM). This solubility kinetic is about 3.4-fold higher than that of the compound before. For the compound `COc1ccc(Cc2nc(-c3ccncc3)no2)cc1`, the kinetic solubility came to 0.0355 mg/mL (≈ 133 µM).

As to `Cc1ccccc1CC(=O)N1CCOCC1`, the solubility (kinetic) was greater than 0.0329 mg/mL.

Compound `CCOc1ccc2nc(SCC(=O)NCc3ccc(OC)cc3)[nH]c2c1` registered a kinetic solubility of 0.0202 mg/mL (≈ 54.4 µM). Next, `CCC(CC)NC(=O)c1cccc(Br)c1`: 0.0381 mg/mL (≈ 141 µM); `O=c1[nH]cnc2c1c(-c1ccccc1)cn2-c1cccc(Cl)c1`: 0.0003 mg/mL (≈ 0.932 µM); `O=C(NCC(c1ccco1)N1CCCCC1)c1cccnc1` (stereo not given): greater than 0.0449 mg/mL. The compound `COc1cc(NC(=O)COC(=O)C=C(C)C)c(C)cc1[N+](=O)[O-]` had a kinetic solubility of 0.0172 mg/mL (≈ 53.4 µM).

`CCOc1cc(N2CCOCC2)c(OCC)cc1NC(=O)COC(=O)c1ccc([N+](=O)[O-])o1` came in with a solubility (kinetic) greater than 0.0695 mg/mL. Next, `O=C(NC1CC1)c1cc2ccccc2o1`: greater than 0.0302 mg/mL. Next, `CCOc1ccc(C(=O)CCC(=O)NC(C)C(=O)OC)cc1` (stereo not given): greater than 0.0461 mg/mL; `Cc1onc(-c2ccccc2)c1CNS(=O)(=O)c1ccc(F)cc1F`: 0.0516 mg/mL (≈ 142 µM); `O=C(COc1cccc(C(F)(F)F)c1)Nc1cccnc1`: greater than 0.0444 mg/mL. Next, `Cc1cccc(Nc2ccc([N+](=O)[O-])cn2)c1`: 0.0134 mg/mL (≈ 58.5 µM); `O=C(OCC(=O)c1ccc[nH]1)C1=COCCO1`: greater than 0.0356 mg/mL; `Cc1ccc(/C=N/N2CCOCC2)s1`: greater than 0.0315 mg/mL. Regarding `CCNC(=O)C(CCSC)NS(=O)(=O)c1ccc(C)cc1` (stereo not given), the solubility (kinetic) was greater than 0.0496 mg/mL. Next, `Cc1ccc(NS(=O)(=O)c2ccc(-c3csc(C)n3)s2)c(C)c1`: less than 0.0004 mg/mL; `COc1ccc(CC(=O)Nc2nc3ccccc3[nH]2)cc1`: 0.0007 mg/mL (≈ 2.49 µM); `COc1ccc(NC(=O)C2Cc3ccccc3O/C2=N\O)cc1` (stereo not given): 0.0102 mg/mL (≈ 32.7 µM).

`CCOc1ccc(C(=O)Nc2nc(C)c(C(=O)OC)s2)cc1` returned a kinetic solubility of less than 0.0003 mg/mL. The compound `Cc1ccc2ncnc(-c3ccccc3)c2c1` had a kinetic solubility of 0.0255 mg/mL (≈ 116 µM). Next, `O=C(Nc1ccccc1F)OC1CN2CCC1CC2` (stereo not given): greater than 0.0396 mg/mL; `COc1ccc(-c2cnc(N)nc2-c2ccc(OC)cc2)cc1`: 0.0028 mg/mL (≈ 9.11 µM); `N#Cc1c(-c2ccccc2)nc2n1CCS2`: 0.0073 mg/mL (≈ 32.1 µM).

`COc1ccc(N2C(=O)C(F)(F)C2c2ccc(C)cc2)cc1OC` (stereo not given): the solubility (kinetic) is less than 0.0007 mg/mL. Next, `O=C(COC(=O)CNC(=O)c1ccccc1Cl)NC1CCCC1`: greater than 0.0508 mg/mL.

Regarding `CN1CCN(C(=O)/C(=C/c2ccc(F)cc2)NC(=O)c2ccccc2)CC1`, the solubility (kinetic) came out at 0.0545 mg/mL (≈ 148 µM). `CC(=O)c1ccc(NC(=O)NC2CCCCCCC2)cc1` had a kinetic solubility of 0.0051 mg/mL (≈ 17.7 µM). In turn, `Cc1cc(NC(=O)CN(C)C)c([N+](=O)[O-])cc1C` came in with a kinetic solubility of 0.0041 mg/mL (≈ 16.3 µM).

`Cc1ccc(C)c(C(=O)Nc2ccncc2)c1` yielded a kinetic solubility greater than 0.0339 mg/mL. Next, `COc1cc(NS(=O)(=O)c2cc(C(=O)NCCc3ccccn3)ccc2OC)cc(OC)c1`: 0.0664 mg/mL (≈ 141 µM); `COc1ccc(NC(=S)N2CCC(c3ccc(C)cc3)C2)cc1` (stereo not given): 0.0006 mg/mL (≈ 1.84 µM); `COc1cccc(C(=O)NCCCNC(=O)c2cccnc2)c1`: greater than 0.047 mg/mL. As for `O=C(Nc1cccc(O)c1)c1ccccc1[N+](=O)[O-]`, the solubility (kinetic) amounted to 0.0363 mg/mL (≈ 141 µM). Next, `Cn1c(=O)c2c(nc3n2CC(CO)O3)n(C)c1=O` (stereo not given): greater than 0.0378 mg/mL; `O=C1CSC(c2ccc(F)c(F)c2)N1c1ccccc1F` (stereo not given): 0.0383 mg/mL (≈ 124 µM). On to `Nc1nc(Nc2ccccc2)nc(NC2CCCCC2)c1[N+](=O)[O-]`, for which the kinetic solubility is less than 0.0001 mg/mL. Next, `Cc1ccc(NC(=S)c2ccncc2)cc1`: 0.0335 mg/mL (≈ 147 µM); `O=C(CCN1C(=O)c2ccccc2C1=O)NCc1cccc(Cl)c1`: 0.0324 mg/mL (≈ 94.5 µM); `O=C(NC(=S)Nc1cccc(-c2ccc(CO)o2)c1)c1cccs1`: 0.0047 mg/mL (≈ 13.1 µM). Compound `COc1ccc(C(=O)OCC(=O)NC2CC2)cc1OC` displayed a solubility (kinetic) greater than 0.0419 mg/mL. Next, `CC1CC(C)CN(CC(O)COCc2ccccc2)C1.Cl` (stereo not given): 0.0469 mg/mL; `C=CCNC(=S)NCc1ccccc1`: greater than 0.0309 mg/mL; `COc1ccc(NC(=O)c2ccccc2SC)c(OC)c1`: greater than 0.0455 mg/mL. `COC(=O)c1ccc(NC(=O)CN2C(=O)NC3(CCC(C)CC3)C2=O)cc1` (stereo not given) came in with a solubility (kinetic) of 0.0101 mg/mL (≈ 27 µM). `Cc1cnc(C(=O)Oc2cccc(Cl)c2Cl)cn1` gave a solubility (kinetic) of 0.0354 mg/mL (≈ 125 µM). `CCCN(c1ccc(C)cc1)c1nc(=O)c2cccnc2s1` gave a kinetic solubility of 0.003 mg/mL (≈ 9.63 µM). Next, `CC12CCC(C(=O)N3CCOCC3)([C@H](Br)C1=O)C2(C)C` (stereo not given in full): greater than 0.0516 mg/mL. Next, `O=C(COC(=O)c1cnccn1)Nc1ccccc1-c1ccccc1`: greater than 0.05 mg/mL; `Cc1ccccc1NC(=O)Cc1nnc(N)s1`: greater than 0.0372 mg/mL; `O=C(O)CCC(=O)NCC(=O)c1ccc(F)cc1`: greater than 0.038 mg/mL. Next, `Cc1ccc(NC(=O)CN2CCCC2c2cccn2C)c(Br)c1` (stereo not given): 0.0114 mg/mL (≈ 30.3 µM); `COc1ccc(OC)c(NC(=O)CCN2CCN(CCO)CC2)c1`: 0.0457 mg/mL (≈ 135 µM).
